Reference: article PMC5065625, “Structure-mechanism-based engineering of chemical regulators targeting distinct pathological factors in Alzheimer's disease” (Nature Communications, 2016)

Experiments:
[1] = UV–vis variable-pH titration (pKa); format: physicochemical; settings: aqueous solution (10 mM NaOH, 100 mM NaCl) titrated with HCl, 100 μM
Protocol: The pKa value for 2 was determined by UV–vis variable-pH titrations as previously reported. To establish the pKa value, a solution (10 mM NaOH, pH 12, 100 mM NaCl) of 2 (100 μM) was titrated with small amounts of HCl. At least 30 spectra were recorded in the range of pH 2–10. Similarly, a solution containing CuCl2 and 2 (50 μM) in a metal to ligand ratio of 1:2 was titrated with small additions of HCl and at least 30 spectra were recorded over the range pH 2–7. The acidity and stability constants were calculated by using the HypSpec program (Protonic Software, UK)[56]. Speciation diagrams were modelled in the HySS2009 program (Protonic Software)[57].

5 × FAD mice = experiment: Tolerability and body weight during 30-day treatment; format: in vivo, mouse
Description: (§1) The amyloidogenic characteristics of 5 × FAD mice have been described previously. In brief, 5 × FAD mice express the Swedish/London/Florida mutations of the human amyloid precursor protein (hAPP) and the M146L/L286V mutations of the human presenilin-1 (PSEN1). They develop the early and robust pathology of AD with the cognitive and behavioural impairments. The 5 × FAD mice have been widely used to test the possible efficacy of a compound targeted for AD[25][29]. We maintained the mice on a C57BL/6 × SJL hybrid background. All animal experiments were performed in accordance with the guidelines of the Asan Institute for Life Science for Laboratory Animal Care and Use (Seoul, Korea), where the animals had free access to water and food, and were housed on 12 h light/12 h dark cycle.
Chemicals used were freshly prepared shortly before administration to the animals. We treated 5 × FAD mice with 1 (1 mg kg^−1 of body weight) or the vehicle (1% v/v DMSO in 20 mM HEPES, pH 7.4, 150 mM NaCl) starting at 3 months of age, which is the same method used in our previous studies. 1 was daily injected into the lower abdomen of the 5 × FAD mice for 30 days.

5 × FAD AD mouse model = experiment: Cerebral amyloid pathology (ELISA, 4G8 immunohistochemistry, Congo red); format: in vivo; settings: 1 mg kg^−1 daily i.p., 30 days
Description: as §1
Chemicals used were freshly prepared shortly before administration to the animals. […]
We measured the levels of various types of Aβ in the brain as described previously. The protein fractions were serially prepared from the left hemispheres in PBS (pH 7.4), in 2% SDS and in 70% FA, and then subjected to the human Aβ40 and Aβ42 ELISA quantification according to the manufacturer's methods (Invitrogen, Carlsbad, CA, USA). The aggregated (Invitorgen) and oligomeric Aβ (82E1-specific; IBL International, Hamburg, Germany) ELISA quantifications were also performed using PBS fractions. The cerebral levels of Aβ40 and Aβ42 were represented as moles per gram of wet brain tissue, whereas the aggregated or oligomeric Aβ amounts were expressed as grams per gram of wet brain tissue.
12-μm sagittal sections of the brain were prepared from the right hemispheres on a cryostat (HM550; Microm, Walldorf, Germany), and mounted onto 1% poly-L-lysine-coated glass slides. […] The loads of amyloid deposits in the brain were expressed as the per cent area of 4G8-immunoreactive deposits or the number of congophilic plaques per mm^2 of a cortical region of interest.

[2] = 1 mg kg^−1 daily, intraperitoneal, 30 days, 5 × FAD mice

Structure (SMILES): COc1cc(NCc2ccccn2)cc(OC)c1 [compound 2, 3,5-dimethoxy-N-(pyridin-2-ylmethyl)aniline]
- pKa [1]: 5

Structure (SMILES): Nc1ccc(NCc2ccccn2)cc1 [compound 1, N^1-(pyridin-2-ylmethyl)benzene-1,4-diamine]
- Body weight versus vehicle-treated mice (5 × FAD mice; [2]): no difference in body weight
- Tolerability of repeated treatments (5 × FAD mice; [2]): tolerated the repeated treatments
- Body weight, female, day 1 (5 × FAD mice; 5×FAD mice, 1 mg/kg/day, mean): 20.8 gram
- Body weight, female, day 3 (5 × FAD mice; 5×FAD mice, 1 mg/kg/day, mean): 20.8 gram
- Body weight, female, day 6 (5 × FAD mice; 5×FAD mice, 1 mg/kg/day, mean): 20.8 gram
- Body weight, female, day 9 (5 × FAD mice; 5×FAD mice, 1 mg/kg/day, mean): 21.0 gram
- Body weight, female, day 12 (5 × FAD mice; 5×FAD mice, 1 mg/kg/day, mean): 21.2 gram
- Body weight, female, day 15 (5 × FAD mice; 5×FAD mice, 1 mg/kg/day, mean): 20.8 gram
- Body weight, female, day 18 (5 × FAD mice; 5×FAD mice, 1 mg/kg/day, mean): 21.2 gram
- Body weight, female, day 21 (5 × FAD mice; 5×FAD mice, 1 mg/kg/day, mean): 21.4 gram
- Body weight, female, day 24 (5 × FAD mice; 5×FAD mice, 1 mg/kg/day, mean): 21.4 gram
- Body weight, female, day 27 (5 × FAD mice; 5×FAD mice, 1 mg/kg/day, mean): 21.8 gram
- Body weight, female, day 30 (5 × FAD mice; 5×FAD mice, 1 mg/kg/day, mean): 21.6 gram
- Body weight, male, day 1 (5 × FAD mice; 5×FAD mice, 1 mg/kg/day, mean): 28.0 gram
- Body weight, male, day 3 (5 × FAD mice; 5×FAD mice, 1 mg/kg/day, mean): 27.6 gram
- Body weight, male, day 6 (5 × FAD mice; 5×FAD mice, 1 mg/kg/day, mean): 27.6 gram
- Body weight, male, day 9 (5 × FAD mice; 5×FAD mice, 1 mg/kg/day, mean): 27.8 gram
- Body weight, male, day 12 (5 × FAD mice; 5×FAD mice, 1 mg/kg/day, mean): 27.4 gram
- Body weight, male, day 15 (5 × FAD mice; 5×FAD mice, 1 mg/kg/day, mean): 27.8 gram
- Body weight, male, day 18 (5 × FAD mice; 5×FAD mice, 1 mg/kg/day, mean): 28.0 gram
- Body weight, male, day 21 (5 × FAD mice; 5×FAD mice, 1 mg/kg/day, mean): 27.8 gram
- Body weight, male, day 24 (5 × FAD mice; 5×FAD mice, 1 mg/kg/day, mean): 27.6 gram
- Body weight, male, day 27 (5 × FAD mice; 5×FAD mice, 1 mg/kg/day, mean): 28.0 gram
- Body weight, male, day 30 (5 × FAD mice; 5×FAD mice, 1 mg/kg/day, mean): 27.0 gram
- Loads of Aβ deposits in the brain (5 × FAD AD mouse model; 4G8-immunoreactive or congophilic plaques): reduced the loads of Aβ deposits
- Amounts of Aβ oligomers and aggregates (5 × FAD AD mouse model; ELISA, PBS fractions): decreased
- Total Aβ level in the brain versus vehicle (5 × FAD AD mouse model; PBS-, SDS- and FA-soluble Aβ40/Aβ42, ELISA): significantly lower
